Reference: US8512734B2, “Biocompatible coating of medical devices” (Katholieke Universiteit Leuven, K.U.Leuven R&D, priority 2004, dated 2013)

Assay: In-vitro release of β-estradiol from loaded zeogrid in simulated body fluid (HPLC)
Assay type: physicochemical
Details: 10 mg loaded zeogrid in 20 ml SBF, room temperature, continuous stirring
Description: Loading of the zeogrid sample with β-estradiol proceeds as follows. 50 mg β-estradiol is dissolved in 100 ml methylenechloride. 500 mg of zeogrid is suspended in the solution. Everything is stirred during 24 hours in a closed container. After 24 hours, the container is opened and the methylenechloride is evaporated at room temperature. The resulting powder is further dried and kept during 24 hours under reduced pressure to remove the solvent.
Release of β-estradiol from zeogrids. Simulated body fluid (SBF) was used as dissolution medium. SBF was prepared by first dissolving 1% SLS (Sodium lauryl sulphate) and 0.90% NaCl in distilled water. The solution was mixed with ethanol in a volume ratio solution:ethanol of 24:1.
The in-vitro release experiments were carried out at room temperature by dispersing 10 mg quantities of the loaded zeogrid into 20 ml quantities of SBF. In order to avoid limitations of the delivery rate by external diffusion constraints, continuous stirring is maintained. The release profile was obtained by measuring drug concentration in the fluid after different times by means of HPLC.

Time after which release of β-estradiol from zeogrid is completed: 30 min
SMILES: C[C@]12CC[C@@H]3c4ccc(O)cc4CC[C@H]3[C@@H]1CC[C@@H]2O [β-estradiol]
